How the values were obtained:
Assay in all cases: kinobeads assay with mass spectrometry detection of kinases (kinase selectivity profile)
Type in all cases: binding
[1] = molecular target: T1, kinases (kinome) (Homo sapiens, UniProt P49759); conditions: CLK1 (CMGC), IPI00915761
T1 construct: determined in kinobeads assays with mass spectrometry detection of kinases as described previously; endogenous in cells; host or cells: cell lysate
Description: (§1) The protein kinase complement of the human genome (the kinome) was described previously (Manning et al., 2002. Science 298(5600):1912-1934). Sequence accession numbers are defined by the International Protein Index (IPI) (Kersey et al., 2004. Proteomics 4(7):1985-1988).

[2] = molecular target: T2, kinases (kinome) (Homo sapiens, UniProt Q13188); conditions: MST2 (STE), IPI00411984
T2 construct: determined in kinobeads assays with mass spectrometry detection of kinases as described previously; endogenous in cells; host or cells: cell lysate
T2 sequence (Q13188 1-491): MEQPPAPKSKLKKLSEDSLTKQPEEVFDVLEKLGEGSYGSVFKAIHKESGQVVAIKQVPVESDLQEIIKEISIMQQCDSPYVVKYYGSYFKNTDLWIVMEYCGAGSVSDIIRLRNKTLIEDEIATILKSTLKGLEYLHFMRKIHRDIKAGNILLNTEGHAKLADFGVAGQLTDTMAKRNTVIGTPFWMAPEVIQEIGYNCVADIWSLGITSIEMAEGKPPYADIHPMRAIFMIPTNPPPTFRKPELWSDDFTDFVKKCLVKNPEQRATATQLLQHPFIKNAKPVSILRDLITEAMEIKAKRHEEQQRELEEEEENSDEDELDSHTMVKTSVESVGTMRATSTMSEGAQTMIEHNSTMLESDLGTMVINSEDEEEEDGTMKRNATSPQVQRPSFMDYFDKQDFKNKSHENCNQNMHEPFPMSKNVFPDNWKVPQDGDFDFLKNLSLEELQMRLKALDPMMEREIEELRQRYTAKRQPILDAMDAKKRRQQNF
Description: as §1

[3] = molecular target: T3, kinases (kinome) (Homo sapiens, UniProt Q8NEB9); conditions: PIK3C3 (Lipid Kinase), IPI00873758
T3 construct: determined in kinobeads assays with mass spectrometry detection of kinases as described previously; endogenous in cells; host or cells: cell lysate
Description: as §1

[4] = molecular target: T4, kinases (kinome) (Homo sapiens, UniProt Q8TBX8); conditions: PIP5K2C (Lipid Kinase), IPI00152303
T4 construct: determined in kinobeads assays with mass spectrometry detection of kinases as described previously; endogenous in cells; host or cells: cell lysate
T4 sequence (Q8TBX8 1-421): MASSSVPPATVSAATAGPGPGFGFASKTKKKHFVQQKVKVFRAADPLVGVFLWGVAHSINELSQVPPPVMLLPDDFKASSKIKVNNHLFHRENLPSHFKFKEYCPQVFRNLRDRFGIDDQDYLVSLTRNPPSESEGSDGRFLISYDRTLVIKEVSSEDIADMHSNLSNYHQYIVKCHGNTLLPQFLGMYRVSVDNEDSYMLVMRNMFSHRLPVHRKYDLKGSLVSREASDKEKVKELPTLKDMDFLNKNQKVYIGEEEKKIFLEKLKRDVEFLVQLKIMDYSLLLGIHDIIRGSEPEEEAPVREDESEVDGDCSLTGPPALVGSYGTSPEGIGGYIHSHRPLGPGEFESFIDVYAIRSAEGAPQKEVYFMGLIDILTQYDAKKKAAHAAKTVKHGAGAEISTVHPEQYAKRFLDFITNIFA
Description: as §1

[5] = molecular target: T5, kinases (kinome) (Homo sapiens, UniProt Q15759); conditions: p38b (CMGC), IPI00019473
T5 construct: determined in kinobeads assays with mass spectrometry detection of kinases as described previously; endogenous in cells; host or cells: cell lysate
Description: as §1

[6] = molecular target: T6, kinases (kinome) (Homo sapiens, UniProt Q99683); conditions: MAP3K5 (STE), IPI00412433
T6 construct: determined in kinobeads assays with mass spectrometry detection of kinases as described previously; endogenous in cells; host or cells: cell lysate
T6 sequence (Q99683 1-1374): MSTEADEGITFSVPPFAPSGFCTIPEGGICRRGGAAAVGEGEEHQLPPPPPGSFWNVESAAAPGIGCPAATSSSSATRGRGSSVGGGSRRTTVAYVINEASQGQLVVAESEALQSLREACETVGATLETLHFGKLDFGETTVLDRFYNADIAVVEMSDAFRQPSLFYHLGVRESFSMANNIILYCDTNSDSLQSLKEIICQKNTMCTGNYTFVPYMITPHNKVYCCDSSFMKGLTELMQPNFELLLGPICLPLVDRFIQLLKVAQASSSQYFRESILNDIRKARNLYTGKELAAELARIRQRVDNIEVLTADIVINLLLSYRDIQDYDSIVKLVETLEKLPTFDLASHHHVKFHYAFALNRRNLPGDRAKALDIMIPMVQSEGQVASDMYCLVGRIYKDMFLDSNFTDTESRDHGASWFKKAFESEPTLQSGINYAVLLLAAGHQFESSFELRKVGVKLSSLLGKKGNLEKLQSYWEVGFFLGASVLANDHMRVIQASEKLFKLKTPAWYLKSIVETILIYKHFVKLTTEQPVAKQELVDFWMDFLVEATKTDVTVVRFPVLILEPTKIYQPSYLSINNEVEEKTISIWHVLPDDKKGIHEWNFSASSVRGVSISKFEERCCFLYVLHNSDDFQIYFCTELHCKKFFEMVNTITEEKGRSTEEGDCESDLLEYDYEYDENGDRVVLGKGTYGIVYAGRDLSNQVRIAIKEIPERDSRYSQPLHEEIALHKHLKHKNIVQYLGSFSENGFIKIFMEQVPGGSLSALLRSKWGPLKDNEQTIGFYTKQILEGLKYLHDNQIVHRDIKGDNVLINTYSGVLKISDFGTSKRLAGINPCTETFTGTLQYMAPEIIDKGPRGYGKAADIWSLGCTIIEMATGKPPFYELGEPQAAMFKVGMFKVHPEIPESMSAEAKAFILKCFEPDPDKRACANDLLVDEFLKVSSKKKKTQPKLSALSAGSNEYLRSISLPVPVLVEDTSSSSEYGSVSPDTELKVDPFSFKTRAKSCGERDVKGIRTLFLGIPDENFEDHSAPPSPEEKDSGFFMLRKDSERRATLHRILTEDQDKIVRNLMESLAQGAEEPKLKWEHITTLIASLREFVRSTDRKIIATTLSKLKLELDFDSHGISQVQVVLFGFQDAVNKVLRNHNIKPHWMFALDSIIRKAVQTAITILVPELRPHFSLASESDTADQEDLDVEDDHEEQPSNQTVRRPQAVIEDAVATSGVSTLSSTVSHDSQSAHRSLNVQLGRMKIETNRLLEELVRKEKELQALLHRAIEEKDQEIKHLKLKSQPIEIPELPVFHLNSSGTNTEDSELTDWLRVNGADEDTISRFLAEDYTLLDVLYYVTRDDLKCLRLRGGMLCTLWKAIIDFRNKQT
Description: as §1

T5 sequence (Q15759 whole entry): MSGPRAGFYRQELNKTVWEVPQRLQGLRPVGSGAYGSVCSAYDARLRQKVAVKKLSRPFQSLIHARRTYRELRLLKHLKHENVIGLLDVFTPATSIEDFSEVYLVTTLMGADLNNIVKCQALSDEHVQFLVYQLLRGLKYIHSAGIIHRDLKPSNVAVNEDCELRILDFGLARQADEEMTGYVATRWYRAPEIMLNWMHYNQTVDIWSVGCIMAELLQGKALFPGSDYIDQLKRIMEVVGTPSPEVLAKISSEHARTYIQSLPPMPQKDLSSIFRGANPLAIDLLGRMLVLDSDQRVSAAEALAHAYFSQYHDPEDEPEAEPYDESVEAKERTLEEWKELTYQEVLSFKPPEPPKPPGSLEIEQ
T3 sequence (Q8NEB9 whole entry): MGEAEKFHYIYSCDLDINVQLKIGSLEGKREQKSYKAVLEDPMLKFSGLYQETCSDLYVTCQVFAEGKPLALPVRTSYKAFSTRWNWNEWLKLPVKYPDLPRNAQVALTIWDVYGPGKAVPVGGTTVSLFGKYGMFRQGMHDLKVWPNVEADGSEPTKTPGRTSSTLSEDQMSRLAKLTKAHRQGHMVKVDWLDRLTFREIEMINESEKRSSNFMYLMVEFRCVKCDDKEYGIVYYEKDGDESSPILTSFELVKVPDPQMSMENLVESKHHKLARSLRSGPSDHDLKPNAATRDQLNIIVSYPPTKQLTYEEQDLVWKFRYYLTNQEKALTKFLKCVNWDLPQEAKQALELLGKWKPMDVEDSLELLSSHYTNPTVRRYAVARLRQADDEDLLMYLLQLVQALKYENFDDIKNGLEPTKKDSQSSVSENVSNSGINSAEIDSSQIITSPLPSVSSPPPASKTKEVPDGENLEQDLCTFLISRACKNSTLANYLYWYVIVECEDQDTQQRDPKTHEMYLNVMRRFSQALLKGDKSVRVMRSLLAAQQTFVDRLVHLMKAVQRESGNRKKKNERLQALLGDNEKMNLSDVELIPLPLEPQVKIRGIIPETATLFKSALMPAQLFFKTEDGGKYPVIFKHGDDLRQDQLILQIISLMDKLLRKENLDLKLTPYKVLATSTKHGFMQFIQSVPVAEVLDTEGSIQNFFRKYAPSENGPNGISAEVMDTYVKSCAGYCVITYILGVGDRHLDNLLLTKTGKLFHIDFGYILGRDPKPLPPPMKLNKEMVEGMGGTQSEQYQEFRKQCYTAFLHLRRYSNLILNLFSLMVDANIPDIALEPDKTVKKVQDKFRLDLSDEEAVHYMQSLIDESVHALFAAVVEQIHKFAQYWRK
T1 sequence (P49759 whole entry): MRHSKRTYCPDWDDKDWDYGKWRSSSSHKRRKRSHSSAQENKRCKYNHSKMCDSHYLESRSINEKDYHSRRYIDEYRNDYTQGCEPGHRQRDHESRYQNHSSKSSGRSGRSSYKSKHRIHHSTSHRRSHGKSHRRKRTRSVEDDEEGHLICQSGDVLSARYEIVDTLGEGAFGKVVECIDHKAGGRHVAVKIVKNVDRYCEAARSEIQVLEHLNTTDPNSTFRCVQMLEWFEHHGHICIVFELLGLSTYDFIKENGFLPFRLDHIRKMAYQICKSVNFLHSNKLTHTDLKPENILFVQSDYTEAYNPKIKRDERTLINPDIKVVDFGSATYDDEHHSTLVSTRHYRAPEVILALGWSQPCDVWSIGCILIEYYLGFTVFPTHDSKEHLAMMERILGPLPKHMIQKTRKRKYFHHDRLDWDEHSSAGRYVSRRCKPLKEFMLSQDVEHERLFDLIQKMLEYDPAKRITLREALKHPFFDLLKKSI

IC50 [1] [µM]	IC50 [2] [µM]	IC50 [3] [µM]	IC50 [4] [µM]	IC50 [5] [µM]	IC50 [6] [µM]	Compound
> 10	> 10	> 10	> 10			C[C@H]1COCCN1c1nc(-c2ccc(NC(=O)NC3CC3)cc2)cc(-c2cccnc2S(C)(=O)=O)n1 [Example 46, (S)-1-cyclopropyl-3-(4-(2-(3-methylmorpholino)-6-(2-(methylsulfonyl)pyridin-3-yl)pyrimidin-4-yl)phenyl)urea]
		> 10		> 10	> 10	C[C@H]1COCCN1c1nc(-c2ccc(NC(=O)NC3CC3)cc2)cc(-c2ccccc2S(C)(=O)=O)n1 [Example 4, (S)-1-cyclopropyl-3-(4-(2-(3-methylmorpholino)-6-(2-(methylsulfonyl)phenyl)pyrimidin-4-yl)phenyl)urea]
> 10	> 10	> 10	> 10		> 10	C[C@H]1COCCN1c1nc(-c2ccc(NC(=O)NC3CC3)cc2)cc(-c2cc(F)ccc2S(C)(=O)=O)n1 [Example 40, (S)-1-cyclopropyl-3-(4-(6-(5-fluoro-2-(methylsulfonyl)phenyl)-2-(3-methylmorpholino)pyrimidin-4-yl)phenyl)urea]
		> 10	> 10		> 10	C[C@H]1COCCN1c1nc(-c2ccc(NC(=O)N[C@H]3CCC[C@@H]3O)cc2)cc(-c2cc(F)ccc2S(C)(=O)=O)n1 [Example 76, 1-(4-(6-(5-fluoro-2-(methylsulfonyl)phenyl)-2-((S)-3-methylmorpholino)pyrimidin-4-yl)phenyl)-3-((1S,2S)-2-hydroxycyclopentyl)urea]
> 10	> 10	> 10	> 10	> 10		C[C@H]1COCCN1c1cc(-c2ccccn2)nc(-c2ccc(NC(=O)NCCO)cc2)n1 [Example 43, (S)-1-(2-hydroxyethyl)-3-(4-(4-(3-methylmorpholino)-6-(pyridin-2-yl)pyrimidin-2-yl)phenyl)urea]
				> 10		C[C@H]1COCCN1c1cc(-c2ccccc2S(C)(=O)=O)nc(-c2ccc(NC(=O)NC3CC3)cc2)n1 [Example 6, (S)-1-cyclopropyl-3-(4-(4-(3-methylmorpholino)-6-(2-(methylsulfonyl)phenyl)pyrimidin-2-yl)phenyl)urea]
> 10						CCNC(=O)Nc1ccc(-c2cc(-c3ccccc3C#N)nc(N3CCOC[C@@H]3C)n2)cc1 [Example 8, (S)-1-(4-(6-(2-cyanophenyl)-2-(3-methylmorpholino)pyrimidin-4-yl)phenyl)-3-ethylurea]

— patent US9249129B2, “Morpholino substituted urea derivatives as mTOR inhibitors” (CELLZOME LIMITED, priority 2010, dated 2016)
